Each structure is given as a SMILES string.

The nature of the first test: The compound was evaluated for time dependent inhibitory activity against Lipoprotein associated Phospholipase A2 (Lp-PLA2) enzyme after 10 min incubation.
In the case of `CCCCCCCCCCC[C@H](CC(=O)NC(=O)/C=C1/OC(=O)N2CCCC12)O[C@@H]1O[C@@H](C)[C@H](O)[C@@H](O)[C@H]1O` (stereo partly drawn), the concentration for half-maximal inhibition (IC50) was found to be 51 nM. This lies in the double-digit nanomolar range. For `CCCCCCCCCCCCCCCCNC(=O)/C=C1/OC(=O)N2CCC[C@H]12`, the half-maximal inhibitory concentration (IC50) was 12 nM. The same measure, in the same setting: for `CCCCCCCCCCCCNC(=O)/C=C1/OC(=O)N2CCC[C@@H]12` the value was 170 nM; for `CCCCCCCCCCCCCCCCNC(=O)/C=C1/OC(=O)N2CCC[C@@H]12`, 25 nM. With `CCCCCCCCCCCCCCNC(=O)/C=C1/OC(=O)N2CCC[C@@H]12`, inhibition was half-maximal at 28 nM (IC50).

A short description of a further test: The compound was evaluated for time dependent inhibitory activity against Lipoprotein associated Phospholipase A2 (Lp-PLA2) enzyme after 10 min incubation; Inactive.
As for `CCCCCCCCCCCCCCC#C/C=C1/OC(=O)N2CCC[C@@H]12`, the IC50 result was “Not Active”. With `O=C1O/C(=C/C#CCCCCO)[C@@H]2CCCN12`, the 50% inhibitory concentration (IC50) entry is listed as “Not Active”. As for `CCCCCCCC(=O)OCCCCC#C/C=C1/OC(=O)N2CCC[C@@H]12`, the IC50 entry was “Not Active”.

Usually IC50 stands for the concentration that gives 50% inhibition. A lower IC50 goes with greater potency.

For the origin of these results see ChEMBL document CHEMBL1133300, “Natural product derived inhibitors of lipoprotein associated phospholipase A2, synthesis and activity of analogues of SB-253514” (Bioorg Med Chem Lett, 2000).
